Test results published in patent US20240336617A1, “Substituted Bimane Compounds and Methods of Use Thereof” (THE TRUSTEES OF THE UNIVERSITY OF PENNSYLVANIA, priority 2023, published 2024).

Experiments:
αS fibrils [1] = molecular target: T1, αS fibrils (Homo sapiens, UniProt P37840); experiment: Fluorescence lifetime measurements of probes with αS fibrils; assay type: physicochemical; conditions: for fluorescence lifetime when bound to PFFs: 100 μM αS PFFs; for Fluorescence Lifetime: 100 μM dye and PFFs; for Lifetime: with αS fibrils in PBS buffer, probe and αS fibrils 100 μM
T1 construct: intein-His6 (C, cleaved yes); made in house; host or cells: Escherichia coli BL21
Procedure: TCSPC measurements of fluorescence lifetime decays for 100 μM dyes in the presence of 100 μM αS fibrils were collected with the PTI Quantamaster™ 40 using a pulsed LED with a maximum emission at 486 nm. Fluorescence emission was collected at the indicated wavelength for each dye with 20 nm slit widths. The IRF was collected under identical conditions. Data analysis was performed with FluoFit software using an exponential decay model.

[2] = Molar absorptivity determination; assay type: physicochemical; conditions: for E, molar absorptivity (ε): absence of αS PFFs (−), measured at λabs;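 for all read-outs here: molar absorptivity derived from UV-Vis absorbance spectra recorded for each derivative on a spectrometer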
Procedure: The absorbance spectrum of each derivative (150 μL) was measured on a Thermo Scientific Genesys 150 UV-Vis spectrometer, using 50:50 ACN/PBS as a blank.
Molar absorptivity determination. […] The absorbance spectrum of each derivative (150 μL) was measured on a Thermo Scientific Genesys 150 UV-Vis spectrometer, using 50:50 ACN/PBS as a blank.

αS fibrils [3] = molecular target: T1, αS fibrils; experiment: Fluorescence spectra with αS fibrils; assay type: binding; conditions: for turn on of fluorescence in the presence of αS PFFs: in vitro generated αS PFFs; for Stokes shift: difference between λex and λem; for λem, maximum emission wavelength: bound dye; for λem: PFF 50 μM; for Stokes shift in the presence of PFFs / emission peaks / emission maxima in the presence of PFFs: αS PFFs
Procedure: Fluorescence measurements were performed using a PTI QuantaMaster™ 40 fluorescence spectrometer. Fluorescence spectra of 10 μM probes (concentrated stock solution prepared as 10 mM in DMSO) (7b, 7c, 7d, 7e, 7f, 7g and 7h) in PBS buffer were measured by excitation at their absorbance maximum wavelength in the absence and presence of 50 μM αS fibrils (stock solution 100 μM αS fibrils in PBS buffer).
Fluorescence spectra with αS fibrils. Fluorescence measurements were performed using a PTI QuantaMaster 40 fluorescence spectrometer. Fluorescence spectra of 10 μM probes (concentrated stock solution prepared as 10 mM in DMSO) (5b-5f and 5h) in PBS buffer were measured by excitation at their absorbance maximum wavelength in the absence and presence of 50 μM αS fibrils (stock solution 100 μM αS fibrils in PBS buffer). […] FIGS. 77A-77F show fluorescence spectra of probes (5b-5f and 5h) with and without αS fibrils. Final concentrations of probes and αS fibrils were 10 μM and 50 μM, respectively. Emission spectra collected at each dye's maximum absorption wavelength. Ex/Em slit widths: 3 nm/3 nm. […] Absorbance is shown in FIG. 78A and FIG. 78B, whereas FIG. 78C and FIG. 78D show excitation spectra of probes 5j and 5k with and without αS fibrils. Final probe and fibrils concentrations were 10 μM and 50 μM, respectively. […] Emission wavelengths were 575 nm for 5j, 580 nm for 5k. Ex/Em slit widths: 3 nm/3 nm. […] Black line indicates incident light (αS fibrils without probe) and blue line indicates sample (αS fibrils with probe). Excitation at λexc=435 nm for 5j and λexc=463 nm for 5k and spectral collection (400-800 nm). Final concentrations of the probe and αS fibrils are the 100 μM. Ex/Em slit widths: 5 nm/5 nm.

αS fibrils [4] = molecular target: T1, αS fibrils; experiment: Excitation spectra with αS fibrils; assay type: physicochemical; conditions: dye 10 μM; for λex, maximum excitation wavelength: presence of αS PFFs (+), PFFs 50 μM, represents the bound form of dye; for λex: presence of αS PFFs, PFF 50 μM
Procedure: (§1) Excitation spectral measurements were performed using a PTI QuantaMaster™ 40 fluorescence spectrometer. Excitation spectra of 10 μM probes (concentrated stock solution prepared as 10 mM in DMSO) (7j, 7k, 7l, and 7m) in PBS buffer were measured in the absence and presence of 50 μM αS fibrils (stock solution 100 μM αS fibrils in PBS buffer).
Excitation spectra with αS fibrils. Excitation spectral measurements were performed using a PTI QuantaMaster 40 fluorescence spectrometer. Excitation spectra of 10 μM probes (concentrated stock solution prepared as 10 mM in DMSO) (5j and 5k) in PBS buffer were measured in the absence and presence of 50 μM αS fibrils (stock solution 100 μM αS fibrils in PBS buffer).

αS fibrils [5] = molecular target: T1, αS fibrils; experiment: Absorbance spectra with αS fibrils; assay type: physicochemical; conditions: for λabs / λabs, maximum absorption wavelength: dye 10 μM; for ε / E, molar absorptivity (ε): measured at λabs; for λabs, maximum absorption wavelength / E, molar absorptivity (ε): presence of αS PFFs (+); for λabs, maximum absorption wavelength: PFFs 50 μM, mixture of bound and unbound dye; for increase in molar absorptivity with αS fibrils: presence versus absence of αS fibrils
Procedure: as §1, with “Absorption” for “Excitation spectral”, “Thermo Scientific Genesys 150 UV Vis” for “a PTI QuantaMaster™ 40 fluorescence”, “Absorption” for “Excitation”
Absorption measurements were performed using Thermo Scientific Genesys 150 UV Vis spectrometer. Absorption spectra of 10 μM probes (concentrated stock solution prepared as 10 mM in DMSO) (5j and 5k) in PBS buffer were measured in the absence and presence of 50 μM αS fibrils (stock solution 100 μM αS fibrils in PBS buffer).

[6] = test system: αS fibrils versus tau fibrils; experiment: Amyloid selectivity by plate reader, αS versus tau fibrils; assay type: binding; design: fluorescence turn-on with αS relative to tau: dose or concentration left out as unconfirmed; conditions: for fluorescence turn on with αS relative to tau: 5 μM fibril concentrations, probe 1 μM
Procedure: Experiments were performed on the Tecan Spark in Greiner 96 well flat black ½ area plates using the following parameters: excitation and emission band widths 5 nm, lag time 0 μs, integration time 40 μs. A 10 mM DMSO stock solution of probes (7j-7m) and 100 μM stock of αS fibrils were used in the study described herein.

[7] = ACN/PBS buffer (1:1 v/v), pH 7.4
[8] = in ACN, at maximum absorption wavelength
[9] = presence of αS PFFs (+), dye 10 μM, PFFs 50 μM

Row | SMILES | fluorescence lifetime when bound to PFFs (αS fibrils [1]) [ns] | Fluorescence Lifetime (αS fibrils [1]; presence of αS PFFs (+)) [ns] | Fluorescence Lifetime (αS fibrils [1]; presence of αS PFFs) [ns] | Lifetime (αS fibrils [1]) [ns] | Molar Absorptivity (ε) [2, 7] [M⁻¹ cm⁻¹] | E, molar absorptivity (ε) [2] [M⁻¹ cm⁻¹] | Molar Absorptivity (ε) [2, 8] [M⁻¹ cm⁻¹] | turn on of fluorescence in the presence of αS PFFs (αS fibrils [3]) | Stokes shift (αS fibrils [3]; [9]) [nm] | λem, maximum emission wavelength (αS fibrils [3]; [9]) [nm] | Stokes shift (αS fibrils [3]; presence of αS PFFs) [nm] | λem (αS fibrils [3]; presence of αS PFFs, dye 10 μM) [nm] | Stokes shift in the presence of PFFs (αS fibrils [3]) [nm] | λex, maximum excitation wavelength (αS fibrils [4]) [nm] | λex (αS fibrils [4]) [nm] | λabs (αS fibrils [5]; absence of αS PFFs) [nm] | ε (αS fibrils [5]; absence of αS PFFs) [M⁻¹ cm⁻¹] | λabs (αS fibrils [5]; presence of αS PFFs, PFF 50 μM) [nm] | ε (αS fibrils [5]; presence of αS PFFs) [M⁻¹ cm⁻¹] | fluorescence turn on with αS relative to tau [6] [fold] | further results
1 | Cc1c(C)n2c(/C=C/c3ccc(N)cc3)c(C)c(=O)n2c1=O [Compound 7j, (E)-3-(4-aminostyryl)-2,5,6-trimethyl-1H,7H-pyrazolo[1,2-a]pyrazole-1,7-dione] | 1.90 | 1.90 | 1.90 | 1.90 ± 0.01 | 30834 | 15385 | 32091 | significant turn-on of orange fluorescence | 140 | 575 | 140 | 575 | 140 | 435 | 435 | 372 | 15385 | 359 | 45956 | – | emission peaks / emission maxima in the presence of PFFs (αS fibrils [3]; listed as 5j): 575 nm; λabs, maximum absorption wavelength (αS fibrils [5]): 359 nm; E, molar absorptivity (ε) (αS fibrils [5]): 45956 M⁻¹ cm⁻¹; increase in molar absorptivity with αS fibrils (αS fibrils [5]): 3 fold
2 | Cc1c(C)n2c(/C=C/c3ccc(N(C)C)cc3)c(C)c(=O)n2c1=O [Compound 7l, (E)-3-(4-(dimethylamino)styryl)-2,5,6-trimethyl-1H,7H-pyrazolo[1,2-a]pyrazole-1,7-dione] | 2.27 | 2.27 | 2.27 | 2.27 ± 0.01 | 30420 | 20071 | 24742 | significant turn-on of orange fluorescence | 117 | 580 | 117 | 580 | 117 | 463 | 463 | 393 | 20071 | 386 | 43864 | 2 | emission maximum bound to αS (αS fibrils [3]): 584 nm; emission peaks / emission maxima in the presence of PFFs (αS fibrils [3]): 580 nm; λabs, maximum absorption wavelength (αS fibrils [5]): 386 nm; E, molar absorptivity (ε) (αS fibrils [5]): 43864 M⁻¹ cm⁻¹; increase in molar absorptivity with αS fibrils (αS fibrils [5]): 2.2 fold; fluorescence turn-on with αS relative to tau [6]: 2.8 fold
3 | Cc1c(C)n2c(/C=C/c3ccc(N4CCOCC4)cc3)c(C)c(=O)n2c1=O [Compound 7k, (E)-2,3,6-trimethyl-5-(4-morpholinostyryl)-1H,7H-pyrazolo[1,2-a]pyrazole-1,7-dione] | – | – | 2.09 | 2.09 ± 0.01 | 29562 | – | 28890 | – | – | – | 146 | 570 | – | – | 424 | 370 | 17205 | 356 | 49869 | 2 | –
4 | Cc1c(C)n2c(/C=C/C=C/c3ccc(N(C)C)cc3)c(C)c(=O)n2c1=O [Compound 7m, 3-((1E,3E)-4-(4-(dimethylamino)phenyl)buta-1,3-dien-1-yl)-2,5,6-trimethyl-1H,7H-pyrazolo[1,2-a]pyrazole-1,7-dione] | – | – | 1.27 | 1.27 ± 0.01 | 36689 | – | 28639 | – | – | – | 136 | 620 | – | – | 484 | 416 | 19024 | 412 | 52234 | 9 | concentration-dependent shift in the emission maximum with αS fibrils (αS fibrils [3]): binding at multiple sites
